Where a name gives a salt, the structure may show the parent alone.
Key:
[1] = test system: hIL-6 mRNA; experiment: Inhibition of hIL-6 mRNA transcription in LPS-stimulated U937 macrophages; assay type: cell-based, human; design: key: Active: Compounds with an IC50 value less than 30 μM are deemed to be active; conditions: U937 differentiated into macrophages, 1 h pretreatment, lipopolysaccharide 3 h
Procedure: In this example, hIL-6 mRNA in tissue culture cells was quantitated to measure the transcriptional inhibition of hIL-6 when treated with a compound of the present disclosure.
A human leukemic monocyte lymphoma cell line (U937) was plated (3.2×10^4 cells per well) in a 96-well plate in 100 μL RPMI-1640 containing 10% FBS and penicillin/streptomycin, and differentiated into macrophages for 3 days in 60 ng/mL PMA ([…]) at 37° C. in 5% CO2 prior to the addition of the compound of interest. The cells were pretreated for 1 h with the test compound prior to stimulation with […] lipopolysaccharide from Escherichia coli. The cells were incubated at 37° C. for 3 h before the cells were harvested. At time of harvest, the spent media was removed from the cells and the cells were rinsed in 200 μL PBS. Cell lysis solution (70 μL) was added the cells in each well and incubated for 5-10 min at room temperature, to allow for complete cell lysis and detachment. mRNA was then prepared using the “mRNA Catcher PLUS plate” (Invitrogen), according to the protocol supplied. After the last wash, as much wash buffer as possible was aspirated without allowing the wells to dry. Elution buffer (E3, 70 μL) was then added to each well. mRNA was then eluted by incubating the mRNA Catcher PLUS plate with Elution Buffer for 5 min at 68° C. and then immediately placing the plate on ice.
The eluted mRNA isolated was then used in a one-step quantitative real-time PCR reaction, using components of the Ultra Sense Kit together with Applied Biosystems primer-probe mixes. Real-time PCR data was analyzed, normalizing the Ct values for hIL-6 to an internal control, prior to determining the fold induction of each unknown sample, relative to the control.

[2] = target: T1, Brd4 bromodomain 1 (Homo sapiens, UniProt O60885); experiment: Inhibition of tetra-acetylated histone H4 binding to BET bromodomains (TR-FRET); design: key: Active: Compounds with an IC50 value less than 30 μM were deemed to be active.; Not Active: Compounds with an IC50 value less than 30 μM were deemed to be active; conditions: first bromodomain of Brd4, tetra-acetylated histone H4 peptide
T1 construct: made in house; host or cells: E. coli BL21(DE3)
Procedure: Proteins were cloned and overexpressed with a N-terminal 6×His tag, then purified by nickel affinity followed by size exclusion chromatography. Briefly, E. coli BL21(DE3) cells were transformed with a recombinant expression vector encoding N-terminally Nickel affinity tagged bromodomains from Brd2, Brd3, Brd4. Cell cultures were incubated at 37° C. with shaking to the appropriate density and induced overnight with IPTG. The supernatant of lysed cells was loaded onto Ni-IDA column for purification. Eluted protein was pooled, concentrated and further purified by size exclusion chromatography. Fractions representing monomeric protein were pooled, concentrated, aliquoted, and frozen at −80° C. for use in subsequent experiments.
Binding of tetra-acetylated histone H4 and BET bromodomains was confirmed by a Time Resolved Fluorescence Resonance Energy Transfer (TR-FRET) method. N-terminally His-tagged bromodomains (200 nM) and biotinylated tetra-acetylated histone H4 peptide (25-50 nM, Millipore) were incubated in the presence of Europium Cryptate-labeled streptavidin (Cisbio Cat. #610SAKLB) and XL665-labeled monoclonal anti-His antibody (Cisbio Cat. #61HISXLB) in a white 96 well microtiter plate (Greiner). For inhibition assays, serially diluted test compound was added to these reactions in a 0.2% final concentration of DMSO. Final buffer concentrations were 30 mM HEPES pH 7.4, 30 mM NaCl, 0.3 mM CHAPS, 20 mM phosphate pH 7.0, 320 mM KF, 0.08% BSA). After 2 hours incubation at room temperature, the fluorescence by FRET was measured at 665 and 620 nm by a SynergyH4 plate reader (Biotek). Illustrative results with the first bromodomain of Brd4 are shown below (Table 1). The binding inhibitory activity was shown by a decrease in 665 nm fluorescence relative to 620 nm. IC50 values were determined from a dose response curve.

[3] = test system: c-myc; experiment: Inhibition of c-myc expression in cancer cell lines (mRNA, real-time PCR); assay type: cell-based; design: key: Active: Compounds with an IC50 value less than 30 μM were deemed to be active; conditions: Human AML MV4-11 cells, 3 hours
Procedure: MV4-11 cells (2.5×10^4 cells) were plated in 96 well U-bottom plates with test compound or DMSO (0.1%), and incubated for 3 hours at 37° C. Cells were then harvested by centrifugation, lysed, and mRNA was isolated using the mRNA catcher plus kit (Invitrogen). Reverse transcription of the mRNA and duplex amplification of the c-myc and cyclophilin cDNAs was performed using the RNA Ultrasense kit (Invitrogen) and a ViiA7 real-time PCR machine (Applied Biosystems). IC50 values were determined from a dose response curve.

[4] = test system: Human AML MV-4-11 cells; experiment: Inhibition of cell proliferation in cancer cell lines (CellTiter Aqueous One); assay type: cell-based; design: key: Active: Compounds with an IC50 value less than 30 μM were deemed to be active.; Not Active: Compounds with an IC50 value less than 30 μM were deemed to be active; conditions: 72 hours
Procedure: MV4-11 cells: 96-well plates were seeded with 5×10^4 cells per well of exponentially growing human AML MV-4-11 (CRL-9591) cells and immediately treated with two-fold dilutions of test compounds, ranging from 30 μM to 0.2 μM. Triplicate wells were used for each concentration, as well as a media only and three DMSO control wells. The cells and compounds were incubated at 37° C., 5% CO2 for 72 hours before adding 20 μL of the CellTiter Aqueous One Solution (Promega) to each well and incubating at 37° C., 5% CO2 for an additional 3-4 hours. The absorbance was taken at 490 nm in a spectrophotometer and the percentage of proliferation relative to DMSO-treated cells was calculated after correction from the blank well. IC50 were calculated using the GraphPad Prism software.

melting point | IL-6 activity (IC50 < 30 μM) [1] | FRET activity (IC50 < 30 μM) [2] | c-myc activity (IC50 < 30 μM) [3] | cell proliferation activity (IC50 < 30 μM) [4] | SMILES
232 to 234 °C | – | – | – | – | COc1cc(OC)c2c(=O)[nH]c(-c3ccc(OCCO)c(-c4ccc(C(C)=O)cc4)n3)nc2c1 (as salt: hydrochloride) [Example 28, 2-(6-(4-Acetylphenyl)-5-(2-hydroxyethoxy)pyridin-2-yl)-5,7-dimethoxyquinazolin-4(3H)-one]
– | Active | Not Active | – | – | COc1cc(OC)c2c(=O)[nH]c(-c3cccc(-c4ccc([S+](C)[O-])cc4)n3)cc2c1 (centres unmarked) [Example 10, 6,8-dimethoxy-3-(6-(4-(methylsulfinyl)phenyl)pyridin-2-yl)isoquinolin-1(2H)-one]
– | Active | Active | Active | Active | COc1cc(OC)c2c(=O)[nH]c(-c3ccc(OCCN(C)C)c(-c4ccc([S+](C)[O-])cc4)c3)nc2c1 (centres unmarked) [Example 11, 2-(6-(2-(Dimethylamino)ethoxy)-4′-(methylsulfinyl)biphenyl-3-yl)-5,7-dimethoxyquinazolin-4(3H)-one]
– | Not Active | – | Not Active | Not Active | COc1cc(OC)c2c(=O)[nH]c(-c3ccc(OC4CNC4)c(-c4ccc([S+](C)[O-])cc4)c3)nc2c1 (centres unmarked) [Example 12, 2-(6-(Azetidin-3-yloxy)-4′-(methylsulfinyl)biphenyl-3-yl)-5,7-dimethoxyquinazolin-4(3H)-one]
– | Active | Active | Active | Active | COc1cc(OC)c2c(=O)[nH]c(-c3ccc(OC4CN(C)C4)c(-c4ccc([S+](C)[O-])cc4)c3)nc2c1 (centres unmarked) [Example 13, 5,7-Dimethoxy-2-(6-(1-methylazetidin-3-yloxy)-4′-(methylsulfinyl)biphenyl-3-yl)quinazolin-4(3H)-one]
– | Not Active | Active | Not Active | Not Active | COc1cc(F)cc2nc(-c3ccc(OC4CNC4)c(-c4ccc([S+](C)[O-])cc4)c3)[nH]c(=O)c12 (centres unmarked) [Example 14, 2-(6-(Azetidin-3-yloxy)-4′-(methylsulfinyl)-[1,1′-biphenyl]-3-yl)-7-fluoro-5-methoxyquinazolin-4(3H)-one]
– | Active | Active | Not Active | Not Active | COc1cc(OC)c2c(=O)[nH]c(-c3ccc(OCCO)c(-c4ccc([S+](C)[O-])cc4)c3)nc2c1 (centres unmarked) [Example 16, 2-(6-(2-Hydroxyethoxy)-4′-(methylsulfinyl)biphenyl-3-yl)-5,7-dimethoxyquinazolin-4(3H)-one]
– | Active | Active | – | – | COc1cc(OC)c2c(=O)[nH]c(-c3ccc(OCCO)c(-c4ccc(C(C)=O)cc4)n3)nc2c1 [Example 28, 2-(6-(4-Acetylphenyl)-5-(2-hydroxyethoxy)pyridin-2-yl)-5,7-dimethoxyquinazolin-4(3H)-one]
– | Not Active | Not Active | Not Active | Not Active | COc1cc(OC)c2c(=O)[nH]c(-c3ccc(OCCO)c(-c4cccc(S(C)(=O)=O)c4)n3)nc2c1 [Example 36, 2-(5-(2-Hydroxyethoxy)-6-(3-(methylsulfonyl)phenyl)pyridin-2-yl)-5,7-dimethoxyquinazolin-4(3H)-one methanesulfonate]

Further lines, the molecule ahead of its results:

SMILES | melting point | IL-6 activity (IC50 < 30 μM) [1] | FRET activity (IC50 < 30 μM) [2] | c-myc activity (IC50 < 30 μM) [3] | cell proliferation activity (IC50 < 30 μM) [4]
CCS(=O)(=O)c1ccc(-c2nc(-c3nc4cc(OC)cc(OC)c4c(=O)[nH]3)ccc2OCCN2CCCC2)cc1 (as salt: hydrochloride) [Example 42, 2-(6-(4-(Ethylsulfonyl)phenyl)-5-(2-(pyrrolidin-1-yl)ethoxy)pyridin-2-yl)-5,7-dimethoxyquinazolin-4(3H)-one] | 235 to 236 °C | – | – | – | –
CCS(=O)(=O)c1ccc(-c2nc(-c3nc4cc(OC)cc(OC)c4c(=O)[nH]3)ccc2OCCN2CCOCC2)cc1 (as salt: hydrochloride) [Example 43, 2-(6-(4-(Ethylsulfonyl)phenyl)-5-(2-morpholinoethoxy)pyridin-2-yl)-5,7-dimethoxyquinazolin-4(3H)-one] | 245 °C (dec.) | – | – | – | –
CN1CC[C@H](Oc2cc(F)cc3nc(-c4cccc(-c5ccc(S(C)(=O)=O)cc5)n4)[nH]c(=O)c23)C1 [Example 7, (S)-7-Fluoro-5-((1-methylpyrrolidin-3-yl)oxy)-2-(6-(4-(methylsulfonyl)phenyl)pyridin-2-yl)quinazolin-4(3H)-one] | – | Not Active | Not Active | – | –
COc1cc(OC)c2c(=O)[nH]c(-c3cccc(-c4ccc(C(=O)N(C)C)cc4)n3)cc2c1 [Example 8, 4-(6-(6,8-Dimethoxy-1-oxo-1,2-dihydroisoquinolin-3-yl)pyridin-2-yl)-N,N-dimethylbenzamide] | – | Active | Not Active | Not Active | Active
COc1cc(OC)c2c(=O)[nH]c(-c3cccc(-c4ccc(S(C)(=O)=O)cc4)n3)cc2c1 [Example 9, 6,8-Dimethoxy-3-(6-(4-(methylsulfonyl)phenyl)pyridin-2-yl)isoquinolin-1(2H)-one] | – | Not Active | Not Active | – | –
CC(C)NCCOc1ccc(-c2nc3ccccc3c(=O)[nH]2)nc1-c1ccc([S+](C)[O-])cc1 (centres unmarked) [Example 65, 2-(5-(2-(Isopropylamino)ethoxy)-6-(4-(methylsulfinyl)phenyl)pyridin-2-yl)quinazolin-4(3H)-one] | – | Active | Active | – | –
COc1ccc2c(=O)[nH]c(-c3ccc(OCCNC(C)C)c(-c4ccc([S+](C)[O-])cc4)n3)nc2c1 (centres unmarked) [Example 66, 2-(5-(2-(Isopropylamino)ethoxy)-6-(4-(methylsulfinyl)phenyl)pyridin-2-yl)-7-methoxyquinazolin-4(3H)-one] | – | – | Active | – | –
